Experiment: Stability to water of a deposition film
Conditions: for State of the film after 5 min (stability to water): 100 nm deposition film on glass substrate, water dropped on film, state after 5 minutes measured with thickness profiler (Alpha-Step); for Dissolution of the film in water: deposition film in contact with water, summary of the Table 1 test
Protocol: The stability to water of the metal complex compound was examined. A deposition film was formed to a thickness of 100 nm on a glass substrate, and water was dropped on the deposition film. After 5 minutes, the state of the film was measured with a thickness profiler (Alpha-Step). Also, the stability to water of lithium fluoride and cesium fluoride, which are generally used as an electron injection material, were examined for comparison.

For [F-].[Li+] [compound 1, lithium fluoride], the “State of the film after 5 min (stability to water)” value was “Dissolved” and the “Dissolution of the film in water” value was “dissolved in water immediately”.
For [Cs+].[F-] [compound 2, cesium fluoride], the “State of the film after 5 min (stability to water)” value was “Dissolved” and the “Dissolution of the film in water” value was “dissolved in water immediately”.
